We go through three compounds from patent US7893299B2, “Interleukin-1 and tumor necrosis factor-αmodulators; syntheses of such modulators and methods of using such modulators” (Nereus Pharmaceuticals, Inc., priority 2005, dated 2011).

In data set [1] the test system is TNF-α production in HPBMC. The experiment in a line: TNF-α levels in LPS-stimulated Human Peripheral Blood Mononuclear cells (ELISA). The settings on record: 5 hr drug exposure, read-out: EC50 Inhibition of TNF-α production. The class given is cell-based. The protocol:
(§1) Eighty μl of 3.1×10^5/ml Human Peripheral Blood Mononuclear cells (HPBMC) were seeded in Costar 3904 96-well plate in LGM-3 medium and cultured for 12 hr at 37° C., 5% CO2 and 95% humidified air. 10 μl of 8-point half-log serial dilutions of LT-1-85, CC-3-19, CC-3-13P, formula (IIB-A1) and CC-3-22 prepared in LGM-3 medium was added to the cells and incubated for 1 hr. Subsequently, 10 μl of 500 ng/ml lipopolysaccharide (LPS) diluted in LGM-3 medium from 1 mg/ml stock solution was added to the cells and incubation proceeded for another 4 hr at 37° C., 5% CO2 and 95% humidified air. SB203580, a known p38 MAP kinase inhibitor and DMSO were used as positive and negative controls, respectively. After 4 hr stimulation with LPS, the level of TNF-α from each sample was analyzed by using the human TNF-α cytoset ELISA kit. EC50 values (the drug concentration at which 50% of the maximal observed TNF-α production is inhibited) were determined using a standard sigmoidal dose response curve fitting algorithm (Prism 2.0, GraphPad Software Inc). A duplicate set of cell plates were assayed for cell viability using the Resazurin dye after the cells were incubated with test compounds for 24 hr. The fluorescence of the reduction product of Resazurin was measured using a Fusion microplate fluorometer (Packard Bioscience) with λex=535 nm and λem=590 nm filters. EC50 values (the drug concentration at which 50% of the maximal observed growth inhibition is established) were determined using a standard sigmoidal dose response curve fitting algorithm (Prism 2.0, GraphPad Software Inc).
On the technique in general: ELISA stands for enzyme-linked immunosorbent assay.

In data set [2] the test system is HPBMC. As to the kind of experiment: HPBMC cell viability, Resazurin. The settings on record: for EC50: HPBMC, 24 hr drug exposure, read-out: EC50 Inhibition of cell growth. In kind it is cell-based, Human. The protocol:
as §1
For orientation: The colour change of resazurin is a common sign of viable cells or microbes.

Data set [3] relates to PC-3 cells. The experiment in a line: cell growth inhibition, PC-3, Resazurin, 1% FBS. In kind it is cell-based, Human. The settings on record: 48 hr of drug exposure. The protocol:
Human prostate adenocarcinoma (PC-3; CRL-1435), multiple myeloma (RPMI 8226; CCL-155) and embryonic kidney (HEK-293; CRL-1573) cells were all purchased from ATCC and maintained in appropriate culture media. The cells were cultured in an incubator at 37° C. in 5% CO2 and 95% humidified air.
For cell growth inhibition assays, PC-3 and HEK-293 cells were seeded at 5×10^3 and 1.5×10^3 cells/well respectively in 90 μl media containing 1% (v/v) FBS into 96 well (Corning; 3904) black-walled, clear-bottom tissue culture plates and the plates were incubated overnight to allow cells to establish and enter log phase growth. RPMI 8226 cells were seeded at 2×10^4 cells/well respectively in 90 μl media containing 1% (v/v) FBS into 96 well plates on the day of the assay. 4 mg/ml stock solutions of the compounds were prepared in 100% DMSO and stored at −20° C. The compounds were serially diluted and added in triplicate to the test wells. LT-1-85 was tested at concentrations ranging from 27 μM to 8.6 nM. Concentrations ranging from 30 μM to 9.7 nM were tested for CC-3-13P. Formula (IIB-A1) was tested at concentrations ranging from 26 μM to 8.4 nM. The plates were returned to the incubator for 48 hours. The final concentration of DMSO was 0.25% in all samples.
Following 48 hours of drug exposure, 10 μl of 0.2 mg/ml Resazurin in Mg2+, Ca2+ free phosphate buffered saline was added to each well and the plates were returned to the incubator for 3-6 hours. Since living cells metabolize Resazurin, the fluorescence of the reduction product of Resazurin was measured using a Fusion microplate fluorometer (Packard Bioscience) with λex=535 nm and λem=590 nm filters. Resazurin dye in medium without cells was used to determine the background, which was subtracted from the data for all experimental wells. […] Where the maximum inhibition of cell growth was less than 50%, an EC50 value was not determined. The data in Table 25 summarize the growth inhibitory effects of LT-1-85, CC-3-13P and formula (IIB-A1) against HEK-293, PC-3 and RPMI 8226 cells. The EC50 values indicate that LT-1-85 and CC-3-13P are cytotoxic against HEK-293, PC-3 and RPMI 8226 cells. Formula (IIB-A1) is cytotoxic against RPMI 8226 cells.

For data set [4], the system named is NO. In kind it is cell-based, Murine. The settings on record: 10 μM. The protocol: After 2 days in culture the medium was replaced by phenol-red free RPMI 1640 medium supplemented with 0.5 mM arginine and 2% FCS followed by the addition of the indicated stimuli. TTL3, TTL1, LT-1-45, LT-1-85 and formula (IIB-A1) were added to cells at the final concentration of 10 μM for 15 min. DMSO was used as a control. Cells were then stimulated with 200 ng/ml of LPS and 20 units/ml of IFNγ for 18 hr. NO release was measured as the accumulation of nitrite and nitrate in the incubation medium (phenol-red free). Nitrate was reduced to nitrite with nitrate reductase and was determined spectrophotometrically with Griess reagent. To determine the protein levels of COX-2 and NOS-2, cells (1.5×10^6) were washed with PBS and collected by centrifugation. Cell pellets were homogenized with 100 μl of buffer A (10 mM Hepes; pH 7.9, 1 mM EDTA, 1 mM EGTA, 100 mM KCl, 1 mM dithiothreitol, 0.5 mM phenylmethylsulfonyl fluoride, 2 μg/ml aprotinin, 10 μg/ml leupeptin, 2 μg/ml Nα-p-tosyl-L-lysine chloromethyl ketone, 5 mM NaF, 1 mM Na3VO4, 10 mM Na2MoO4). After 10 min at 4° C., Nonidet P-40 was added to reach a 0.5% concentration. The tubes were gently vortexed for 15 sec and centrifuged at 8,000×g for 15 min. The supernatants were stored at −80° C. until use. Protein content was assayed using the Bio-Rad protein reagent. Protein extracts were separated by 10% SDS-polyacrylamide gel electrophoresis. The gels were blotted onto a Hybond P membrane and then incubated with appropriate primary antibodies: anti-NOS-2 or anti-cyclooxygenase-2. Antibody against β-actin was used as a control to confirm the loading of each sample. […] Different exposure times of the films were used to ensure that bands were not saturated. Quantification of the films was performed by laser densitometry.

In data set [5] the test system is D-GalN/LPS endotoxic shock. The experiment in a line: lethality induced by D-GalN/LPS in mice. The class given is in vivo, BALB/c mice. To be noted: 5 μmol/kg i.p. 1 hour prior to D-GalN/LPS. The protocol:
Male BALB/c mice, 8 to 10 weeks old were induced an endotoxic shock. The lethal injury was produced by an intraperitoneal (i.p.) injection of LPS (2 μg/kg) in combination with D-GalN (800 mg/kg). 5 μmol/kg of TTL3 or formula (IIB-A1) were administered by i.p. injection (0.5 ml) 1 hour prior to the challenge of D-GalN/LPS. Saline was given to the control animals. The lethality was monitored until 24 h after the administration of D-GalN/LPS.

“Also recorded” adds a separate entry of the source. Where two headings read alike, the source gives them in different places. Where only a bound is given, the exact number is not on record here.

For the compound `C=C[C@@]1(C)CCC=C2[C@H]1CC[C@@H]1[C@](C)(C(=O)NC3CCCCC3)CCC[C@@]21C` [Formula (IIB-A1), N-Cyclohexylamide Derivative of TTL], the EC50 (usually the concentration giving half of the maximal effect) in data set [1] (Homo sapiens, PBMC, 5 h) was 1.4 µM; in data set [2] (Homo sapiens, 24 h), more than 26 µM; in data set [3] (Homo sapiens, PC-3, 48 h), more than 26 µM. Besides, the “cell growth of HPBMC (in words)” value in data set [2] (concentrations up to 26 μM) was “did not inhibit”. In data set [4], the “synthesis of NO induced by LPS/IFNγ” value is reported as “also reduced”. Further, the figures for the “protection against lethality / survival time” value in data set [5] and in data set [5] (listed as formula (IIB-A1)) were “delay D-GalN/LPS lethality” and “extending three folds the survival time”, respectively.
Consider `C=C[C@@]1(C)CCC=C2[C@H]1CC[C@@H]1[C@](C)(C(=O)N3CCOCC3)CCC[C@@]21C` [LT-1-85], for which the EC50 was determined as 2.3 µM in data set [1]; 1.9 µM in data set [1] (Homo sapiens, PBMC, 5 h); 3.6 µM in data set [2]; 3.8 µM in data set [2] (Homo sapiens, 24 h); 19 µM in data set [3]; 22 µM in data set [3] (Homo sapiens, PC-3, 48 h). Besides, the “synthesis of NO induced by LPS/IFNγ” value in data set [4] is recorded as “also reduced”.
For `C=C[C@@]1(C)CCC=C2[C@H]1CC[C@@H]1[C@](C)(C(=O)OC)CCC[C@@]21C` [TTL3], the “synthesis of NO induced by LPS/IFNγ” value in data set [4] was “also reduced”. Also, the “protection against lethality / survival time” value in data set [5] is listed as “extending three folds the survival time; also recorded: delay D-GalN/LPS lethality”.
